Results on 3 substances are retold here after paper PMC9006213, “Multifunctional, Multivalent PIC Polymer Scaffolds for Targeting Antigen-Specific, Autoreactive B Cells” (ACS Biomaterials Science & Engineering, 2022).

One experiment relates to B-cell compartments. Conditions: clinical use; cited from earlier work. An excerpt: These autoreactive MBCs likely exert pathogenic effector functions through the co-stimulation of T cells, the production of pro-inflammatory cytokines, and the recruitment of neutrophils to sites of the local inflammation.[1] The involvement of these cells in the inflammatory disease process is addi ...

For experiment [1], the system named is patient-derived ACPA and immortalized ACPA-expressing B cells. Particulars: cited from earlier work. An excerpt: To study the application of PICs for the detection of ACPA-expressing B cells, we prepared a set of fluorescently labeled PICs containing CCP and arginine-containing control peptides (CArgP, Figure 1B), as well as tetrameric CCP-SA and CArgP-SA containing the same fluorophores (Figure 1C).[15] […] In CArgP, the citrulline residue that is essential for recognition by ACPA is replaced by an arginine. Besides the ...

Experiment [2] deals with ACPA-expressing B cells in peripheral blood of RA patients. Put plainly: Identification and immunophenotyping of primary ACPA-expressing B cells in peripheral blood of RA patients. The experiment is classed as cell-based, human. Particulars: median; n = 5; PICs and SA tetramer. The method, then:
Having determined the specificity of CCP-PIC-AF647 and its ability to detect small subpopulations of B cells, we used the combination of PICs to identify and characterize the primary ACPA-expressing B cells in the peripheral blood of five RA patients. […] The median frequency was determined at approximately 0.007% cells out of total B cells (Figure 5A,B). To assess whether the characteristics of the patient’s ACPA-expressing B cells were consistent with previous data, we also examined various B-cell subset-defining markers such as CD20, CD27, IgG-class B-cell receptors, and the activation surface marker CD80 (Figure 5B).
Each dot represents one patient sample. Connected dots depict data from individual patient samples. Statistical differences between groups were determined using the Wilcoxon test. (ns, p > 0.05).
To identify and characterize ACPA-expressing B cells in RA blood, PBMC were isolated from peripheral blood of RA donors as above.
For stimulation experiments, ACPA-expressing Ramos B cells were used. Ramos cells were transduced with ACPA-encoding lentiviral vectors 8. Ramos cells were cultured in RPMI 1640 (Thermofisher) supplemented with 8% FCS, 100 U/ml PS, 2 mM GlutaMax and 10 mM HEPES).
To determine which ratio of CCP and fluorophore in PIC to use, two ratios of CCP-AF647 were tested, i.e. 10:1 and 2:1. […]

Consider “Rituximab: broadly B-cell depleting agent approved for clinical use”, for which the “depletion of B-cell compartments” value with B-cell compartments was “depletes the naïve and MBC compartments but leaves the compartment of antibody-secreting cells largely intact”.

For the substance cyclic citrullinated peptide [CCP], the “recognition by ACPA and ACPA-expressing B cells” value in experiment [1] is “recognized by both patient-derived ACPA and immortalized ACPA-expressing B cells”.

Take polyisocyanopeptides [PICs]: the “ACPA-expressing B cells positive for memory B cell markers CD20 and CD27” value in experiment [2] amounted to 50%.
